According to ChEMBL document CHEMBL1151995, “Evaluation of tea polyphenols as anti-HIV agents” (Bioorg Med Chem Lett, 1996):
Converted amounts (≈) assume the structure as drawn. Values belong to the compound of their own block, whether it stands above or below them.

How the values were obtained:
[1] = tested on: Human immunodeficiency virus 1; assay: Inhibition of HIV-1 replication in H9 (human lymphoma) cells.; assay type: functional, organism-based; settings: Human immunodeficiency virus 1, H9
[2] = Therapeutic index - IC50/EC50.; settings: read-out: Therapeutic index
[3] = tested on: H9; assay: Inhibition of uninfected H9 lymphocytic cell growth; assay type: functional, cell-based; settings: Homo sapiens
[4] = tested on: Human immunodeficiency virus 1; assay: Inhibition of HIV-1 replication in H9 (human lymphoma) cells; No suppression.; assay type: functional, organism-based

- EC50 [1]: 8 µg/mL (≈ 8.75 µM)
Structure (SMILES): O=C(O[C@@H]1Cc2c(O)cc(O)cc2OC1c1cc(O)c(O)c(O)c1-c1c(C2Oc3cc(O)cc(O)c3C[C@H]2OC(=O)c2cc(O)c(O)c(O)c2)cc(O)c(O)c1O)c1cc(O)c(O)c(O)c1 (single isomer, unassigned)
- selectivity ratio [2]: 5
- IC50 [3]: 40 µg/mL (≈ 43.7 µM)

- EC50 [1]: 10 µg/mL (≈ 16.4 µM)
Structure (SMILES): Oc1cc(O)c2c(c1)OC(c1cc(O)c(O)c(O)c1-c1c(C3Oc4cc(O)cc(O)c4C[C@H]3O)cc(O)c(O)c1O)[C@H](O)C2 (single isomer, unassigned)
- selectivity ratio [2]: 2
- IC50 [3]: 20 µg/mL (≈ 32.8 µM)

- EC50 [4]: No effect
Structure (SMILES): O=C(O[C@@H]1Cc2c(O)cc(O)cc2O[C@@H]1c1cc(O)c(O)c(O)c1-c1c([C@H]2Oc3cc(O)cc(O)c3C[C@H]2O)cc(O)c(O)c1O)c1cc(O)c(O)c(O)c1 [2',2'-BISEPIGALLOCATECHIN MONOGALLATE]
- IC50 [3]: 9.5 µg/mL (≈ 12.5 µM)

- EC50 [1]: 9.8 µg/mL (≈ 32.2 µM)
Structure (SMILES): O=C1c2c(O)cc(O)cc2O[C@H](c2ccc(O)c(O)c2)[C@H]1O [(+)-TAXIFOLIN]
- selectivity ratio [2]: 1
- IC50 [3]: 9.8 µg/mL (≈ 32.2 µM)

- EC50 [1]: 70 µg/mL (≈ 255 µM)
Structure (SMILES): Oc1ccc([C@H]2Oc3cc(O)cc(O)c3C[C@H]2O)cc1 [EPIAFZELECHIN (2R,3R)(-)]
- selectivity ratio [2]: 1.4
- IC50 [3]: 100 µg/mL (≈ 365 µM)

- EC50 [4]: No effect
Structure (SMILES): O=C(O[C@@H]1Cc2c(O)cc(O)cc2O[C@@H]1c1ccc(O)c(O)c1)c1cc(O)c(O)c(O)c1 [EPICATECHIN GALLATE]
- IC50 [3]: > 10 µg/mL

- EC50 [1]: 5.5 µg/mL (≈ 9.01 µM)
Structure (SMILES): O=C(Oc1cc(O)cc2c1C[C@@H](OC(=O)c1cc(O)c(O)c(O)c1)[C@@H](c1cc(O)c(O)c(O)c1)O2)c1cc(O)c(O)c(O)c1 [EPIGALLOCATECHIN 3,5-DIGALLATE]
- selectivity ratio [2]: 3.6
- IC50 [3]: 20 µg/mL (≈ 32.8 µM)

- EC50 [4]: No effect
Structure (SMILES): O=C(O[C@@H]1Cc2c(O)cc(O)cc2O[C@@H]1c1cc(O)c(=O)c2c(O)c(O)cc([C@H]3Oc4cc(O)cc(O)c4C[C@H]3OC(=O)c3cc(O)c(O)c(O)c3)c2c1)c1cc(O)c(O)c(O)c1 [THEAFLAVIN DIGALLATE]
- IC50 [3]: 48 µg/mL (≈ 55.3 µM)

- EC50 [4]: No effect
Structure (SMILES): O=c1c(O)cc([C@H]2Oc3cc(O)cc(O)c3C[C@H]2O)cc2c([C@H]3Oc4cc(O)cc(O)c4C[C@H]3O)cc(O)c(O)c12 [THEAFLAVIN]
- IC50 [3]: 48 µg/mL (≈ 85 µM)

- EC50 [1]: 19 µg/mL (≈ 20.8 µM)
Structure (SMILES): O=C(O[C@@H]1Cc2c(O)cc(O)cc2O[C@@H]1c1cc(O)c(O)c(O)c1-c1c([C@H]2Oc3cc(O)cc(O)c3C[C@H]2OC(=O)c2cc(O)c(O)c(O)c2)cc(O)c(O)c1O)c1cc(O)c(O)c(O)c1 [THEASINENSIN A]
- selectivity ratio [2]: 0.95
- IC50 [3]: 18 µg/mL (≈ 19.7 µM)

Further lines, the compound ahead of its results:

Structure (SMILES): O=C(O[C@@H]1Cc2c(O)cc3c(c2O[C@@H]1c1cc(O)c(O)c(O)c1)C1(O)C(=O)O[C@H]([C@@H](O)CO)C1(O)O3)c1cc(O)c(O)c(O)c1 (stereo not given in full)
- EC50 [1]: 10 µg/mL (≈ 15.8 µM)
- selectivity ratio [2]: 4
- IC50 [3]: 40 µg/mL (≈ 63.2 µM)

Structure (SMILES): O=C(O[C@@H]1Cc2c(cc(O)c(Cc3c(O)cc(O)c4c3O[C@H](c3cc(O)c(O)c(O)c3)[C@H](OC(=O)c3cc(O)c(O)c(O)c3)C4)c2O)O[C@@H]1c1cc(O)c(O)c(O)c1)c1cc(O)c(O)c(O)c1
- EC50 [1]: 25 µg/mL (≈ 26.9 µM)
- selectivity ratio [2]: 1.6
- IC50 [3]: 40 µg/mL (≈ 43.1 µM)

Structure (SMILES): O=C1O[C@H]([C@@H](O)CO)C2(O)Oc3cc(O)c4c(c3C12O)O[C@H](c1cc(O)c(O)c(O)c1)[C@H](O)C4 (stereo not given in full)
- EC50 [1]: 4 µg/mL (≈ 8.33 µM)
- selectivity ratio [2]: 9.5
- IC50 [3]: 38 µg/mL (≈ 79.1 µM)

Structure (SMILES): O=C(O[C@@H]1[C@@H](c2c(O)cc(O)c3c2O[C@H](c2cc(O)c(O)c(O)c2)[C@H](OC(=O)c2cc(O)c(O)c(O)c2)C3)c2c(O)cc(O)cc2O[C@@H]1c1cc(O)c(O)c(O)c1)c1cc(O)c(O)c(O)c1
- EC50 [4]: No effect
- IC50 [3]: 40 µg/mL (≈ 43.7 µM)

Structure (SMILES): O=C(O[C@@H]1Cc2c(O)cc(O)cc2O[C@@H]1c1cc(O)c(O)c2c(=O)c(O)cc([C@H]3Oc4cc(O)cc(O)c4C[C@H]3O)cc12)c1cc(O)c(O)c(O)c1
- EC50 [4]: No effect
- IC50 [3]: 48 µg/mL (≈ 67 µM)

Structure (SMILES): O=C(O[C@H](Cc1c(O)cc(O)cc1O)[C@@H](c1cc(O)c(O)c(O)c1)c1c(O)cc2c(c1O)C[C@@H](OC(=O)c1cc(O)c(O)c(O)c1)[C@@H](c1cc(O)c(O)c(O)c1)O2)c1cc(O)c(O)c(O)c1
- EC50 [1]: 14 µg/mL (≈ 15.3 µM)
- selectivity ratio [2]: 2.5
- IC50 [3]: 35 µg/mL (≈ 38.2 µM)

Structure (SMILES): O=C(O[C@@H]1Cc2c(cc(O)c(Cc3c(O)cc4c(c3O)C[C@@H](OC(=O)c3cc(O)c(O)c(O)c3)[C@@H](c3cc(O)c(O)c(O)c3)O4)c2O)O[C@@H]1c1cc(O)c(O)c(O)c1)c1cc(O)c(O)c(O)c1
- EC50 [1]: 9 µg/mL (≈ 9.69 µM)
- selectivity ratio [2]: 3.9
- IC50 [3]: 35 µg/mL (≈ 37.7 µM)

Structure (SMILES): Oc1cc(O)c2c(c1)O[C@H](c1cc(O)c(O)c(O)c1)[C@H](O)C2 [EPIGALLOCATECHIN]
- EC50 [4]: No effect
- IC50 [3]: 1.8 µg/mL (≈ 5.88 µM)

Structure (SMILES): O=C(O[C@@H]1Cc2c(O)cc(O)cc2O[C@@H]1c1cc(O)c(O)c(O)c1)c1cc(O)c(O)c(O)c1 [EPIGALOCATECHIN GALLATE]
- EC50 [1]: 7 µg/mL (≈ 15.3 µM)
- selectivity ratio [2]: 1.1
- IC50 [3]: 8 µg/mL (≈ 17.5 µM)
